From ChEMBL document CHEMBL5726897, “Pyridopyrimidinones and methods of use thereof” (2019)
pEC50: −log10 of the molar value.

Target: Glutamate NMDA receptor; GRIN1/GRIN2A (Homo sapiens, UniProt Q05586+Q12879)
Test: TBD: TBD
Assay type: protein-complex assay

Chain of Glutamate NMDA receptor; GRIN1/GRIN2A (Q12879 whole entry, other chains not shown): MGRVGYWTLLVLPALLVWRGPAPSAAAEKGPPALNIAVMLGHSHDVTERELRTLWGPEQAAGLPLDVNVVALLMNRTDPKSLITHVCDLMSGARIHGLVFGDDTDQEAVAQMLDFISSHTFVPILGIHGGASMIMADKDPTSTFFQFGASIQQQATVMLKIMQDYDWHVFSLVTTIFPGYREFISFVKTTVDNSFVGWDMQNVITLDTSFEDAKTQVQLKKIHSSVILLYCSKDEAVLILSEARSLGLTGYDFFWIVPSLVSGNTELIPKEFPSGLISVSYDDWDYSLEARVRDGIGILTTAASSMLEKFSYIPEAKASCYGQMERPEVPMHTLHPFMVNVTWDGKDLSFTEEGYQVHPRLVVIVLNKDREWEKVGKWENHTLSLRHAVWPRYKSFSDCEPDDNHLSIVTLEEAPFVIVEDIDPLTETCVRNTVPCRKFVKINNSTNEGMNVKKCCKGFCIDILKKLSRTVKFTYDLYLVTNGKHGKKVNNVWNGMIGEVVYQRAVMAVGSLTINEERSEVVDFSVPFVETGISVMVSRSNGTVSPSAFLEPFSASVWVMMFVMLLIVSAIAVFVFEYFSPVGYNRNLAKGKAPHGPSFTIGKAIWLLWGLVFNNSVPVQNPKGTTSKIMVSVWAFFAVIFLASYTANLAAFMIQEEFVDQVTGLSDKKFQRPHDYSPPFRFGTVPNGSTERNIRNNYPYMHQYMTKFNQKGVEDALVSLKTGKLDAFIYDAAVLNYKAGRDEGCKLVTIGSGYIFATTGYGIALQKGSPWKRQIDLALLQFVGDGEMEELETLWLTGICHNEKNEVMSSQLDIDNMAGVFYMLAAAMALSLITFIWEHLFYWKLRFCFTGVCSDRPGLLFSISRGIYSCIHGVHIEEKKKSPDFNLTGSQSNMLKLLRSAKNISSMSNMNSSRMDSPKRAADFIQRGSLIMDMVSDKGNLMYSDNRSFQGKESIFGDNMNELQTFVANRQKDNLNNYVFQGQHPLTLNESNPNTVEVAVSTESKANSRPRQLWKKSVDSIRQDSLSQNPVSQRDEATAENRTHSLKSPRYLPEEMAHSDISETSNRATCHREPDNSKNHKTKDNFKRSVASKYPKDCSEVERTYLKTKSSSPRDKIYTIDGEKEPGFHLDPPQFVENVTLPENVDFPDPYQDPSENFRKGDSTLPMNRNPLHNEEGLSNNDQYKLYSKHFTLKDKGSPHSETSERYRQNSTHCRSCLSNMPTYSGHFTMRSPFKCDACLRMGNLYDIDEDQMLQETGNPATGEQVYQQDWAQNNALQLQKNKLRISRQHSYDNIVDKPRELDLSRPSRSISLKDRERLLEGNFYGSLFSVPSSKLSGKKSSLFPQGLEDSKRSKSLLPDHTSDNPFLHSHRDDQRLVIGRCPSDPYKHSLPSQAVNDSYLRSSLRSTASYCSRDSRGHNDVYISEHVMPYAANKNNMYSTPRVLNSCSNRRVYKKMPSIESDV

- pEC50: 5.36
Structure (SMILES): CCN(Cc1cc(=O)n2c(OC)cccc2n1)c1ccc(F)cc1
